A melting point compilation (Tetko et al.; mined from patent text by program, amines drawn as free bases though some values may be those of a salt)

Row | melting point [°C] | Structure (SMILES)
1 | 108 to 111 | CS(=O)(=O)OCc1cc(-c2ccc3c(c2)CCO3)nn(CC2CC2)c1=O
2 | 125 | Cc1ccccc1N1CCN(CCCCCC(=O)O)CC1
3 | 63 to 65 | N#Cc1cc(F)c(N(CCO)CCO)c(F)c1
4 | 86 | CN(C)C(=O)NCCNCC(O)COc1ccc(OCCOCC2CC2)cc1 (centres undefined)
5 | 141 to 143 | COc1cc2nc(N3CCCN(C(=O)C=Cc4cccnc4)CC3)nc(N)c2cc1OC
6 | 128 | C[C@H](CSC(=O)c1ccccc1)C(=O)N1C(=O)N(C)C[C@H]1C(=O)OC(C)(C)C
7 | 112 to 114 | COC1(c2ccc(N(C)C)cc2)OC(=O)c2ccccc21 (centres undefined)
8 | 214 | CCOC(=O)C(C(=O)C(C)C)C1c2nccnc2C(=O)N1c1ccc2ccc(Cl)nc2n1 (centres undefined)
9 | 161 to 163 | O=C1Cc2c(OCCNCc3ccccc3)ccc(Cl)c2N1
10 | 91 to 93 | CC(C)(C)c1cc(C(=O)COc2ccc(C(=O)OCc3ccccc3)c(O)c2)ccc1OCc1ccccc1
11 | 197 | O=C(Nc1nc(C(Cl)(Cl)Cl)ns1)c1cc([N+](=O)[O-])cc([N+](=O)[O-])c1
12 | 266 to 268 | COc1cccc2c1C(=O)c1c(OC)cc(C#N)cc1C2=O
13 | 154 to 157 | CSCC(C)(CN)C(=O)N(C)c1nnc(-c2cncc(F)c2)s1 (centres undefined)
14 | 218 | O=C(O)Cc1cc(C(=O)c2ccc(F)cc2)ccc1O
15 | 146 to 150 | O=C(C=Cc1ccc(-c2ccc(OCCCN3CCCCC3)cc2)cc1)N1CCCCC1
16 | 90 | CCN1CCN(C(=O)c2ccc(-c3cc(C(=O)Cc4cccc(C)n4)ccn3)cc2)CC1
17 | 136 to 137 | C[C@H](CSC(=O)c1ccccc1)C(=O)N1C(c2cccs2)SC[C@H]1C(=O)O (some centres undefined)
18 | 102 to 104 | CS(=O)(=O)N1C[C@H](S)C[C@H]1CSCc1ccccc1
19 | 295 to 298 | NC(=O)C1CN(c2c(F)cc3c(=O)c(C(=O)O)cn(C4CC4)c3c2F)C1
20 | 215 to 218 | COc1cc2c(Nc3ccc(Cl)cc3F)ncnc2cc1OCc1ccccn1
21 | 137 to 138 | COc1ccc(S(=O)(=O)Nc2ccccc2-c2ccc(F)cc2C(C)O)cc1 (centres undefined)
22 | 134 to 136 | CCn1c(=O)n(OCc2ccccc2)c(=O)c2cc(F)c(N3CCN(C)CC3)cc21
23 | 187 to 189 | CC1Cc2cc(S(N)(=O)=O)cc(C(=O)NCC3CCCN3C)c2O1 (centres undefined)

Row | melting point [°C] | Structure (SMILES)
24 | 61 | Clc1cnnc(Cl)c1Cl
25 | 217 to 221 | O=C(O)/C=C/c1cn(-c2cc(C(F)(F)F)cc(C(F)(F)F)c2)nc1-c1cccc(Cl)c1
26 | 192 to 193 | N#Cc1ccc(Oc2nccc(-c3c(-c4ccc(F)cc4)ncn3C3CCNCC3)n2)cc1
27 | 90 to 91 | CC(C)(C)COc1ccc([N+](=O)[O-])cc1C#N
28 | 180 | CCCCCCCCCCCCn1c(=O)c(=O)[nH]c2c3ccccc3ccc21
29 | 118 to 119 | COc1cc(C(=O)c2c(N)sc3c2CCN(C(=O)c2ccc(Cl)cc2)C3)ccc1OC(C)C
30 | > 230 | CSc1nn2c(N3CCN(C)CC3)cc(C)nc2c1S(=O)(=O)c1ccc(C(C)C)cc1
31 | 60 to 63 | Nc1c(Cl)cc(C(O)CNCCCCCCOCCc2ccccc2)cc1Cl (centres undefined)
32 | 130 to 131 | Cc1ccnc2c1C(=O)c1ccccc1-2
33 | 162 to 172 | CCOC(=O)c1c(Nc2ccccc2OC)n[nH]c1C
34 | 130 to 132 | O=C(O)[C@@H](CCN1C(=O)c2ccccc2C1=O)Oc1c(Br)cc(-c2c(Br)ccc3sc4ccccc4c23)cc1Br
35 | 190 to 195 | O=C(O)c1ccc(SC(C(=O)O)c2cccc(C(F)(F)F)c2)cn1 (centres undefined)
36 | 195 to 197 | CCOC(=O)c1ccc(CCc2coc(N)c2C#N)cc1
37 | 240 | CCOC(=O)c1c(N2CCN(C(=O)c3cccs3)CC2)c2sccc2n(CC(=O)c2ccccc2)c1=O
38 | 238 to 239 | CCOC(=O)c1cc(-c2ccccc2)n(-c2cccc(C(N)=O)c2)c1C
39 | 150 to 151 | Cc1ccc(OCCCN2CCC(Cc3ccc4ccccc4n3)CC2)c2c1NC(=O)C2(C)C
40 | 162 to 164 | Cc1ccc(Cc2cnc(NCCCN)[nH]c2=O)cn1
41 | 235 to 254 | N#Cc1ccc(C=Cc2ccc(-c3ccccc3)cc2)cc1
42 | 127 | COc1ccc(OC)c(C(=S)N2CCOCC2)c1
43 | 181 to 183 | CC(=O)C(=NNc1ccc([N+](=O)[O-])cc1)Sc1ccc(Cl)cc1
44 | 80 to 82 | Cc1c(Cl)nnc(Cl)c1C
45 | 190 to 192 | CCOC(=O)N1N=C(c2ccc(N)cc2)c2cc(Cl)c(Cl)cc2CC1C (centres undefined)
46 | 192 to 194 | COc1nc(C#N)c(C#N)n1C

Row | melting point [°C] | Structure (SMILES)
47 | 145 to 147 | CCCCCCCCCCNC(=O)Nc1ccc(N(C)C)cc1C(=O)NCC1CCN(C(c2ccccc2)c2ccccc2)CC1
48 | 155 to 156 | CCCCc1oc2ccccc2c1C(=O)NCc1ccc2cc(O)ccc2c1
49 | 163 to 165 | COc1ccc(Oc2cccc(Oc3ccc4c(c3)OCO4)c2C(=O)O)cc1
50 | 192 to 194 | CC(C)(C)OC(=O)CN1CCN(c2ccnc(-c3nc(=O)c4ccccc4s3)c2)C1=O
51 | 162 to 164 | CC(=O)NC1=C(O)CC(C(=O)N(C)C)CC1=O (centres undefined)
52 | 250 to 251 | N#Cc1c(N2CCCN(c3ccc(F)c(F)c3)CC2)cc[nH]c1=S
53 | 152 to 154 | CC(=O)O[C@@H]1[C@H](OC(C)=O)[C@@H](C)O[C@H]1n1c(Br)nc2c(Br)c(Cl)c(Cl)cc21
54 | 150 to 151 | COc1cc2c(=O)c(Cc3cccnc3)cn3c4ccc(Br)cc4c(c1)c23
55 | 78 | O=S1(=O)c2cccc3cccc(c23)N1CCCCl
56 | 139 to 141 | NC(=O)C(O)C1CC=CCC1 (centres undefined)
57 | 144 to 145 | CNc1cc(F)ccc1C(=O)CS(C)(=O)=O
58 | 176 to 178 | Cc1ccc(S(=O)(=O)NCCCCOc2ccc(N)cc2)cc1
59 | 160 to 161 | O=C(c1ccc(Cl)cc1)c1c(N2C(=O)c3ccccc3C2=O)sc(-c2ccccc2)c1CBr
60 | 240 to 242 | Cc1cccc(-c2ccc(-c3nnc(-c4cccc(C(=O)O)c4)o3)cc2)c1
61 | 86 to 92 | CC(=O)OCC=C(C)CS(=O)(=O)c1ccccc1
62 | 69 to 70 | COc1ccc(S(=O)(=O)N(COCC[Si](C)(C)C)c2ccccc2I)cc1
63 | 131 to 134 | COc1ccc(C2Sc3cc(Cc4ccc(C)s4)ccc3N(CCN(C)C)C(=O)C2OC(C)=O)cc1 (centres undefined)
64 | 60 to 61 | Clc1cccc(Cl)c1-c1nsnc1OCCBr
65 | 209 | CCS(=O)(=O)Nc1ccc(CN(CC2(c3ccccn3)CCCCC2)C(=O)Nc2c(C(C)C)cccc2C(C)C)cc1
66 | 126 to 127 | [N-]=[N+]=Nc1ccc(S(=O)(=O)NCCCCCC(=O)O)cc1
67 | 116 to 117 | C=CCOC(=O)c1ccc(-c2ccc3cc(C(=O)OCC)c(C45CC6CC(CC(C6)C4)C5)cc3c2OCCCCC)cc1
68 | 146 to 147 | O=C(/C=C/C=C(c1ccc(Cl)cc1)c1ccc(Cl)cc1)NCCCCc1cccnc1
69 | 146 to 147 | CCOC(=O)c1c(CN2CCOCC2)nc2cc(OC)c(OC)cc2c1-c1ccc(OC)c(OC)c1

Row | melting point [°C] | Structure (SMILES)
70 | 193 | Cc1nc(Cl)c2c(c1O)COC2CCc1ccccc1 (centres undefined)
71 | 125 to 130 | CC(C)(C)OC(=O)NCCNC(=O)c1ncccc1Br
72 | 135 to 137 | CN(Cc1ccc(F)cc1)C(=O)c1cnc2c([N+](=O)[O-])cccc2c1Cl
73 | 280 to 283 | Nc1ncnc2c1c(-c1cccc(O)c1)nn2Cc1oc2ccccc2c(=O)c1-c1cccc(F)c1
74 | 154 to 163 | Cc1ccc(C(=O)Nc2ccc(-n3ccnc3C)cc2C(F)(F)F)cc1Nc1nccc(-c2cccnc2)n1
75 | 206 to 207 | COc1ccc2c(c1)CCN=C2C
76 | 75 to 76 | C=Cc1ccc(OC(=O)c2ccccc2)cc1
77 | 114 to 116 | COC(=O)CC(c1ccc(OC)c(OC)c1)N1C(=O)c2ccccc2C1=O (centres undefined)
78 | 206 to 208 | OCCc1cnc(Nc2n[nH]c3ccc(-c4ncccc4Cl)cc23)s1
79 | 72 to 80 | O=C(COc1cccc(C(F)(F)F)c1)N[C@@H](Cc1ccccc1)C(=O)CSCc1ccco1
80 | 55 | Cc1ccc(C(=S)OCSC#N)cc1
81 | 183 to 185 | O=C(CCc1cccc2c1NC(=O)CO2)CCc1cccc2c1NC(=O)CO2
82 | 140 to 141 | CCCOC(Nc1ccccc1)(OCCC)c1ccnc(C(=O)c2ccc(Cl)cc2)c1
83 | 203 to 204 | Cc1ccc(C(=O)c2cnn3c(-c4cccnc4)ccnc23)cc1
84 | 155 to 157 | COC1=CC=CC(OCCCN2CCN(c3n[nH]c4ccccc34)CC2)(C(C)=O)C1 (centres undefined)
85 | 79.5 to 81 | CCCc1c(OCCCCCOc2cccc3cc(C(=O)O)oc23)ccc2c1OCCC2=O
86 | 163 to 165 | Cc1ccc(S(=O)(=O)OCCCCCn2c3c(c4ccccc4c2=O)C(=O)c2ccccc2-3)cc1
87 | 79 to 80 | O=S(=O)(c1ccc2ccccc2c1)N1C[C@@H](S)C[C@@H]1COCc1ccccc1
88 | 259 to 261 | O=C1Nc2ccccc2C12COc1ccc3c(c12)OCCO3 (centres undefined)
89 | 94 to 95 | C(=C\c1nc(COc2ccc(CCCCn3cncn3)cc2)co1)/c1ccccc1
90 | 235 to 236 | CC(=O)Nc1ncc(C=O)s1
91 | 61 to 63 | CCCOC(C)c1ccc(O)cc1 (single isomer, unassigned; (+))
92 | 124 to 125 | Sc1nncn1Cc1ccccc1

Row | Structure (SMILES) | melting point [°C]
93 | Cc1c(C(=O)c2ccc(Cl)c(S(N)(=O)=O)c2)c2ccccc2n1C | 247 to 249
94 | CC(=O)NC(=O)NCC(=O)N1CC1C#N (centres undefined) | 118 to 122
95 | C1=C(c2cccc3ccccc23)CCN(Cc2ccccc2)C1 | 72 to 74
96 | CNC(=O)Oc1c(OC)c(OC)c(OC(=O)NC)c2ccccc12 | 228 to 229
97 | COC12CC(CCN3CCC(c4c[nH]c5ccccc45)CC3)CN(C)C1Cc1c[nH]c3cccc2c13 (centres undefined) | 153 to 156
98 | O=C(O)c1ncn2c1[C@@H]1CCN1C(=O)c1c-2ccc(F)c1Cl | 225 to 226
99 | Cc1onc(OC2CN3CCC2CC3)c1Cl (centres undefined) | 37 to 38
